Laboratory results published in article PMC6770336, “Computationally Designed Peptides for Zika Virus Detection: An Incremental Construction Approach” (Biomolecules, 2019).

What was measured:
intact ZIKV particles [1] = assay: Direct ELISA vs. intact ZIKV particles; type: binding, Zika virus; settings: for FPLR—Dynamic Range: direct ELISA, plates coated with 10-fold serial dilutions of intact ZIKV particles, biotinylated peptide 20 μM in PBS pH 7.4 (4G2 1 μg/mL in PBST), absorbance 450 nm; for FPLR—Dynamic Range / FPLR—maximum / FPLR—minimum: four parameters logistic fit; for FPLR—Dynamic Range / FPLR—C50 / LOD: n = 3; for Long-term stability: dose-response performance of the ELISA reproducible over time, stock 1 mM in 10 mM PBS pH 7.4 stored at −30° C; for FPLR—C50: four parameters logistic fit of delta absorbance vs log ZIKV concentration; for FPLR—C50 / FPLR—maximum / FPLR—minimum / LOD: peptide 20 μM in PBS (4G2 1 μg/mL in PBST); for LOD: interpolated from calibration curve, LOD = AvB + 3 × SDB
Description: Before biotin functionalization, peptides stock solution was reduced using Tris[2-carboxyethyl] phosphine hydrochloride (TCEP) disulfide reducing gel from ThermoFisher Scientific available online at: www.thermofisher.com (accessed on 15 April 2019) and after 1 h, the gel was removed using TCEP gel spin separation columns (ThermoFisher Scientific). Then, two-fold molar excess of EZ-Link™ Maleimide-PEG2-Biotin (ThermoFisher Scientific) was added to purified peptide solution and incubated for 1 h. […] Therefore, no further separation was carried out.
(§1) To optimize all parameters of the direct ELISA protocol, Pierce 96-well polystyrene plates, (ThermoFisher Scientific) were coated overnight at 4° C with different concentrations of intact virus particles (ZIKV or DENV). The intact virus particles were diluted using 100 mM NaHCO3, pH 9.6, and aliquots of 100 μL were dispensed into each well of the plate using a multichannel pipette. This buffer pH assured a strong hydrophobic binding interaction between polystyrene and virus particles.
The antibody 4G2 hybridoma mouse IgG2a was used as the reference and employed in combination with an anti-mouse IgG conjugated to HRP.
(§2) After coating the plates overnight, the intact virus particles were removed by washing five times with the washing buffer (PBST) 10 mM PBS pH 7.4, 0.1% Tween-20, using an automated plate washer (MultiWash+, Molecular Devices, Sunnyvale, CA). Then, the plates were blocked with 200 μL of blocking buffers while shaking at 300 rpm at room temperature. The blocking buffers used were Pierce™ protein-free (PBS) blocking buffer (PF), Blocker™ BLOTTO (BT) in TBS, SuperBlock^TM blocking buffer, Blocker™ BSA (1X) in PBS all from ThermoFisher Scientific. After 2 h, the blocking buffers were removed using the same washing procedure mentioned above. Hundred microliter aliquots of several dilutions of peptides biotinylated in 10 mM PBS pH 7.4 were placed in each well and incubated for 2 h while shaking at 300 rpm at room temperature. After the incubation, the unreacted peptides were removed by using the plate washer with the same settings. Then, 100 μL-aliquots of streptavidin-HRP (ThermoFisher Scientific) at a concentration of 20 ng/mL were added into each well and incubated for 30 min at room temperature without shaking. After the incubation, excess streptavidin-HRP was removed and the wells were washed with the plate washer five times using the washing buffer. Finally, 100 μL-aliquots of the Ultra TMB-ELISA substrate solution (ThermoFisher Scientific) were added and after 10 min, the reaction was stopped by adding 100 μL aliquots of the TMB stop solution from SeraCare, available online at; https://www.seracare.com (accessed on 1 abril 2019). The […] (450 nm) was read using a microplate reader (Clariostar Optima; BMG Labtech, Ortenberg, Germany).
The corresponding blank signals in triplicates were obtained by using all reagents without peptides. They were subtracted to the average absorbance values for triplicate wells of each test.
The optimal concentration of peptide was determined by coating clear 96-well plates with a solution of 10^7 copies/mL of intact ZIKV particles. Concentrations of peptide, from 0.1 to 50 μM, diluted in 10 mM PBS pH 7.4 were added to wells of the microplates coated with intact ZIKV particles. […] Thus, a peptide concentration of 20 μM was used to estimate the linear range and the limit of detection (LOD) of the assay by using 10-fold serial dilutions of intact ZIKV particles from 10^1 to 10^9 copies/mL.
The regression parameters of the assay are reported in Table 4 and the sigmoidal trend in Figure 6. The LOD was interpolated from the calibration curves using LOD = AvB + 3 × SDB, where AvB and SDB were the average (Av) and the standard deviation (SD) of the blank measurements, respectively.

intact ZIKV particles [2] = assay: Urine and serum matrix effect on the direct ELISA signal; type: binding, Zika virus; settings: peptide 20 μM; for signal decrease in serum: serum diluted 1:10; for signal decrease in serum / signal decrease in urine: 10 mM PBS pH 7.4; for signal decrease in urine: urine diluted 1:1
Description: as §2
Usually, the presence of ZIKV in affected bodies is detected in biological fluids. Therefore, the analytical sensitivity of the selected peptides was tested in two biological matrices, namely, urine and serum. The matrix effect was investigated to understand how real biological fluids could modify the binding efficiency of the peptides.
Figure 8 reports the ELISA data using solutions of peptides with or without the urine and serum obtained, coating clear 96-well plates with 10^6 and 10^7 copies/mL of intact ZIKV particles. Serum and urine were 1:10 and 1:1 diluted, respectively, with a concentrated peptide PBS solution to obtain a peptide final concentration of 20 μM (10 mM PBS, pH 7.4). A coating concentration of 10^5 was also tested, but no signal was observed after the addition of the biological matrix.

[3] = tested on: DENV-2 intact virus particles; assay: Direct ELISA cross-reactivity, DENV-2; type: binding; settings: plates coated with 10^6 copies/mL of intact virus particles; peptide 20 μM
Description: as §1
(§3) After coating the plates overnight, the intact virus particles were removed by washing five times with the washing buffer (PBST) 10 mM PBS pH 7.4, 0.1% Tween-20, using an automated plate washer (MultiWash+, Molecular Devices, Sunnyvale, CA). Then, the plates were blocked with 200 μL of blocking buffers while shaking at 300 rpm at room temperature. The blocking buffers used were Pierce™ protein-free (PBS) blocking buffer (PF), Blocker™ BLOTTO (BT) in TBS, SuperBlock^TM blocking buffer, Blocker™ BSA (1X) in PBS all from ThermoFisher Scientific. After 2 h, the blocking buffers were removed using the same washing procedure mentioned above. […] The […] (450 nm) was read using a microplate reader (Clariostar Optima; BMG Labtech, Ortenberg, Germany). […]

[4] = tested on: DENV-1 intact virus particles; assay: Direct ELISA cross-reactivity, DENV-1; type: binding; settings: plates coated with 10^6 copies/mL of intact virus particles; peptide 20 μM
Description: as §1, §3

[5] = 10^6 copies/mL of intact ZIKV particles
[6] = 10^7 copies/mL of intact ZIKV particles

Substance | FPLR—Dynamic Range (intact ZIKV particles [1]) | Long-term stability (intact ZIKV particles [1]) [Month] | FPLR—C50 (intact ZIKV particles [1]) | FPLR—maximum (intact ZIKV particles [1]) | FPLR—minimum (intact ZIKV particles [1]) | LOD (intact ZIKV particles [1]) | signal decrease in serum (intact ZIKV particles [2]; [5]) [%] | signal decrease in serum (intact ZIKV particles [2]; [6]) [%] | signal decrease in urine (intact ZIKV particles [2]; [5]) [%] | signal decrease in urine (intact ZIKV particles [2]; [6]) [%] | DENV/ZIKV signal ratio, DENV-2 [3] [%] | DENV/ZIKV signal ratio, DENV-1 [4] | detection limit in urine and serum (intact ZIKV particles [2]; serum 1:10 and urine 1:1)
C-SWPGQ [P1, experimental peptide with N-terminal cysteine, labelled with maleimide-PEG2-biotin for ELISA] | 7-8 log[ZIKV], copies/mL | >1 | 6.6 log[ZIKV], copies/mL | 0.140 Absorbance (450 nm) | 0.001 Absorbance (450 nm) | 6.8 log[ZIKV], copies/mL | – | – | – | – | – | – | –
C-SHRNATA [H2, experimental peptide with N-terminal cysteine, labelled with maleimide-PEG2-biotin for ELISA] | 6-8 log[ZIKV], copies/mL | >1 | 6.5 log[ZIKV], copies/mL | 0.683 Absorbance (450 nm) | 0.014 Absorbance (450 nm) | 5.7 log[ZIKV], copies/mL | – | – | – | – | – | – | –
C-KTDAYS [X2, experimental peptide with N-terminal cysteine, labelled with maleimide-PEG2-biotin for ELISA] | 6-8 log[ZIKV], copies/mL | >1 | 6.2 log[ZIKV], copies/mL | 0.915 Absorbance (450 nm) | 0.007 Absorbance (450 nm) | 5.8 log[ZIKV], copies/mL | – | – | – | – | – | – | –
C-LRGHA [P2, experimental peptide with N-terminal cysteine, labelled with maleimide-PEG2-biotin for ELISA] | 5-7 log[ZIKV], copies/mL | >1 | 6.1 log[ZIKV], copies/mL | 0.928 Absorbance (450 nm) | 0.036 Absorbance (450 nm) | 4.7 log[ZIKV], copies/mL | 77 | 72 | 72 | 85 | 34 | – | –
C-KRNATP [X1, experimental peptide with N-terminal cysteine, labelled with maleimide-PEG2-biotin for ELISA] | 5-7 log[ZIKV], copies/mL | >1 | 6.1 log[ZIKV], copies/mL | 0.973 Absorbance (450 nm) | 0.026 Absorbance (450 nm) | 4.8 log[ZIKV], copies/mL | 95 | 89 | 95 | 82 | 49 | 32% | 10^7 copies/mL
C-GSKANNG [H1, experimental peptide with N-terminal cysteine, labelled with maleimide-PEG2-biotin for ELISA] | 5-7 log[ZIKV], copies/mL | >1 | 6.2 log[ZIKV], copies/mL | 0.826 Absorbance (450 nm) | 0.036 Absorbance (450 nm) | 4.5 log[ZIKV], copies/mL | 82 | 73 | 53 | 45 | – | up to 42% | –
